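Exposure lasted 48 hours, with cells grown in 96-well plates and compounds tested at five concentrations. Abbreviation: GI50, concentration required for 50% inhibition of growth. TGI marks complete inhibition of growth.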
Legend:
Test in all cases: DTP human tumour cell line panel, 48 h
[1] = system: 786-0 renal
[2] = system: A498 renal
[3] = system: A549 NSCLC
[4] = system: ACHN renal
[5] = system: BT-549 breast
[6] = system: CAKI-1 renal
[7] = system: CCRF-CEM leukemia
[8] = system: COLO 205 colon
[9] = system: DU-145 prostate
[10] = system: EKVX NSCLC
[11] = system: HCC-2998 colon
[12] = system: HCT-116 colon
[13] = system: HCT-15 colon
[14] = system: HL-60(TB) leukemia
[15] = system: HOP-62 NSCLC
[16] = system: HOP-92 NSCLC
[17] = system: HS 578T breast
[18] = system: HT29 colon
[19] = system: IGROV1 ovarian
[20] = system: K-562 leukemia
[21] = system: KM12 colon
[22] = system: LOX IMVI melanoma
[23] = system: M14 melanoma
[24] = system: MALME-3M melanoma
[25] = system: MCF7 breast
[26] = system: MDA-MB-231 breast
[27] = system: MDA-MB-435
[28] = system: MDA-MB-468 breast
[29] = system: MOLT-4 leukemia
[30] = system: NCI-H226 lung
[31] = system: NCI-H23 lung
[32] = system: NCI-H460 lung
[33] = system: NCI/ADR-RES ovarian
[34] = system: OVCAR-3 ovarian
[35] = system: OVCAR-4 ovarian
[36] = system: OVCAR-5 ovarian
[37] = system: OVCAR-8 ovarian
[38] = system: PC-3 prostate
[39] = system: RPMI-8226 leukemia
[40] = system: RXF 393 renal
[41] = system: SF-268 CNS
[42] = system: SF-295 CNS
[43] = system: SF-539 CNS
[44] = system: SK-MEL-2 melanoma
[45] = system: SK-MEL-28 melanoma
[46] = system: SK-MEL-5 melanoma
[47] = system: SK-OV-3 ovarian
[48] = system: SN12C renal
[49] = system: SNB-19 CNS
[50] = system: SNB-75 CNS
[51] = system: SR leukemia
[52] = system: SW-620 colon
[53] = system: T-47D breast
[54] = system: TK-10 renal
[55] = system: U251 CNS
[56] = system: UACC-257 melanoma
[57] = system: UACC-62 melanoma
[58] = system: UO-31 renal
[59] = system: NCI-H522 lung

Work on `FC(F)(F)c1cc2c(Cl)ncnc2n1CCN1CCOCC1` yielded a GI50 [1] of 37 µM, a TGI [1] of over 100 µM and a GI50 [2] of over 100 µM. The TGI [2] was over 100 µM, the GI50 [3] was over 100 µM and the TGI [3] was over 100 µM. The GI50 [4] was 7.65 µM, the TGI [4] was over 100 µM and the GI50 [5] was 13.6 µM. It also gave a TGI [5] of 28.2 µM, a GI50 [6] of 27.6 µM and a TGI [6] of over 100 µM. It also gave a GI50 [7] of 16.6 µM, a TGI [7] of over 100 µM and a GI50 [8] of 26.4 µM. For the same compound, the TGI [8] was over 100 µM, the GI50 [9] was 28.9 µM and the TGI [9] was over 100 µM. The GI50 [10] was 17 µM, the TGI [10] was 94.6 µM and the GI50 [11] was 2.23 µM. It also gave a TGI [11] of 5.11 µM, a GI50 [12] of 4.63 µM and a TGI [12] of over 100 µM. It also gave a GI50 [13] of 3.3 µM, a TGI [13] of 17.7 µM and a GI50 [14] of 2.09 µM. For the same compound, the TGI [14] was 5.97 µM, the GI50 [15] was 38.9 µM and the TGI [15] was over 100 µM. The GI50 [16] was 19 µM, the TGI [16] was 59.8 µM and the GI50 [17] was 16.5 µM. The TGI [17] was 59 µM, the GI50 [18] was 27.3 µM and the TGI [18] was over 100 µM. For the same compound, the GI50 [19] was 2.54 µM, the TGI [19] was 7.67 µM and the GI50 [20] was 3.05 µM. It also gave a TGI [20] of 18.7 µM, a GI50 [21] of 35.5 µM and a TGI [21] of over 100 µM. The GI50 [22] was 1.75 µM, the TGI [22] was 3.4 µM and the GI50 [23] was 11.6 µM. It also gave a TGI [23] of 36 µM, a GI50 [24] of 22.1 µM and a TGI [24] of 67.3 µM. For the same compound, the GI50 [25] was 25 µM, the TGI [25] was over 100 µM and the GI50 [26] was 4.36 µM. The TGI [26] was 18.3 µM, the GI50 [27] was 13.2 µM and the TGI [27] was 29.3 µM. The GI50 [28] was 2.73 µM, the TGI [28] was 10.4 µM and the GI50 [29] was 5.71 µM. It also gave a TGI [29] of 29 µM, a GI50 [30] of 99 µM and a TGI [30] of over 100 µM. The GI50 [31] was 17.9 µM, the TGI [31] was 74.4 µM and the GI50 [32] was 23.2 µM. It also gave a TGI [32] of over 100 µM, a GI50 [33] of 30.5 µM and a TGI [33] of over 100 µM. It also gave a GI50 [34] of 19.4 µM, a TGI [34] of 43.7 µM and a GI50 [35] of 33 µM. The TGI [35] was over 100 µM, the GI50 [36] was over 100 µM and the TGI [36] was over 100 µM. For the same compound, the GI50 [37] was 8.45 µM, the TGI [37] was 29.4 µM and the GI50 [38] was 11.3 µM. For the same compound, the TGI [38] was 36.6 µM, the GI50 [39] was 31.9 µM and the TGI [39] was over 100 µM. The GI50 [40] was 14.9 µM, the TGI [40] was 40.6 µM and the GI50 [41] was 14.8 µM. The TGI [41] was 33.8 µM, the GI50 [42] was 24.7 µM and the TGI [42] was over 100 µM. The GI50 [43] was 18.1 µM, the TGI [43] was 42.2 µM and the GI50 [44] was 17.4 µM. For the same compound, the TGI [44] was 33.4 µM, the GI50 [45] was 13.6 µM and the TGI [45] was 32.9 µM. It also gave a GI50 [46] of 13 µM, a TGI [46] of 29.7 µM and a GI50 [47] of over 100 µM. For the same compound, the TGI [47] was over 100 µM, the GI50 [48] was 19.7 µM and the TGI [48] was over 100 µM. It also gave a GI50 [49] of 15.3 µM, a TGI [49] of 32.9 µM and a GI50 [50] of 10.1 µM. The TGI [50] was 22.4 µM, the GI50 [51] was 2.85 µM and the TGI [51] was 12.6 µM. It also gave a GI50 [52] of 10.5 µM, a TGI [52] of 56.1 µM and a GI50 [53] of 38.8 µM. The TGI [53] was over 100 µM, the GI50 [54] was over 100 µM and the TGI [54] was over 100 µM. The GI50 [55] was 14.8 µM, the TGI [55] was 38.8 µM and the GI50 [56] was 10.5 µM. The TGI [56] was 30.2 µM, the GI50 [57] was 10.8 µM and the TGI [57] was 32.5 µM. The GI50 [58] was 2.53 µM and the TGI [58] was 8.99 µM.

Compound `O=C(N/N=C/c1c[nH]c2ccccc12)Nc1ccc(F)c(Cl)c1` has a GI50 [1] of 1.37 µM, a TGI [1] of 3.27 µM and a GI50 [2] of 15.4 µM. For the same compound, the TGI [2] was 30.2 µM, the GI50 [3] was 12.7 µM and the TGI [3] was 26.3 µM. It also gave a GI50 [4] of 14.6 µM, a TGI [4] of 27.7 µM and a GI50 [5] of 0.312 µM. It also gave a TGI [5] of 1.54 µM, a GI50 [6] of 14.8 µM and a TGI [6] of 28 µM. It also gave a GI50 [7] of 0.604 µM, a TGI [7] of 11.7 µM and a GI50 [8] of 14.1 µM. For the same compound, the TGI [8] was 27.1 µM, the GI50 [9] was 14.4 µM and the TGI [9] was 27.4 µM. For the same compound, the GI50 [10] was 13.8 µM, the TGI [10] was 28.6 µM and the GI50 [11] was 11.7 µM. For the same compound, the TGI [11] was 23.9 µM, the GI50 [12] was 1.49 µM and the TGI [12] was 2.84 µM. It also gave a GI50 [13] of 5.13 µM, a TGI [13] of 17.9 µM and a GI50 [14] of 3.44 µM. It also gave a TGI [14] of 18.8 µM, a GI50 [15] of 13.1 µM and a TGI [15] of 25.8 µM. For the same compound, the GI50 [16] was 2.04 µM, the TGI [16] was 6.59 µM and the GI50 [17] was 13.7 µM. For the same compound, the TGI [17] was 39.7 µM, the GI50 [18] was 12.7 µM and the TGI [18] was 25.3 µM. It also gave a GI50 [19] of 7.6 µM, a TGI [19] of 21.7 µM and a GI50 [20] of 1.86 µM. For the same compound, the TGI [20] was 17.4 µM, the GI50 [21] was 8.76 µM and the TGI [21] was 21 µM. The GI50 [22] was 11.2 µM, the TGI [22] was 23.2 µM and the GI50 [23] was 1.57 µM. For the same compound, the TGI [23] was 3.44 µM, the GI50 [24] was 12.6 µM and the TGI [24] was 25.1 µM. It also gave a GI50 [25] of 6.47 µM, a TGI [25] of 23.1 µM and a GI50 [26] of 11.8 µM. For the same compound, the TGI [26] was 24 µM, the GI50 [27] was 3.35 µM and the TGI [27] was 12.6 µM. The GI50 [28] was 1.98 µM, the TGI [28] was 7.74 µM and the GI50 [29] was 1.44 µM. For the same compound, the TGI [29] was 11.8 µM, the GI50 [30] was 10.3 µM and the TGI [30] was 34.7 µM. For the same compound, the GI50 [31] was 13.5 µM, the TGI [31] was 27.2 µM and the GI50 [32] was 13 µM. The TGI [32] was 26.3 µM, the GI50 [59] was 1.68 µM and the TGI [59] was 8.35 µM. It also gave a GI50 [33] of 6.05 µM, a TGI [33] of 25 µM and a GI50 [34] of 11.5 µM. For the same compound, the TGI [34] was 23.6 µM, the GI50 [35] was 12.8 µM and the TGI [35] was 28.7 µM. It also gave a GI50 [36] of 13.5 µM, a TGI [36] of 26.3 µM and a GI50 [37] of 14.3 µM. It also gave a TGI [37] of 31.6 µM, a GI50 [38] of 3.12 µM and a TGI [38] of 14.5 µM. It also gave a GI50 [39] of 1.48 µM, a TGI [39] of 9.26 µM and a GI50 [40] of 3.97 µM. It also gave a TGI [40] of 15.5 µM, a GI50 [41] of 8.09 µM and a TGI [41] of 20.9 µM. For the same compound, the GI50 [42] was 14.4 µM, the TGI [42] was 27.4 µM and the GI50 [43] was 10.1 µM. For the same compound, the TGI [43] was 21.6 µM, the GI50 [44] was 10.7 µM and the TGI [44] was 22.6 µM. For the same compound, the GI50 [45] was 12.5 µM, the TGI [45] was 25 µM and the GI50 [46] was 8.65 µM. It also gave a TGI [46] of 20.8 µM, a GI50 [47] of 12.9 µM and a TGI [47] of 26.8 µM. For the same compound, the GI50 [48] was 11.2 µM, the TGI [48] was 23.2 µM and the GI50 [49] was 14.9 µM. It also gave a TGI [49] of 28.1 µM, a GI50 [50] of 11.8 µM and a TGI [50] of 24 µM. It also gave a GI50 [51] of 2.2 µM, a TGI [51] of 13.3 µM and a GI50 [52] of 10.9 µM. It also gave a TGI [52] of 22.8 µM, a GI50 [53] of 11.5 µM and a TGI [53] of 32 µM. For the same compound, the GI50 [54] was 22.8 µM, the TGI [54] was 44.3 µM and the GI50 [55] was 13.3 µM. It also gave a TGI [55] of 26 µM, a GI50 [56] of 13.6 µM and a TGI [56] of 26.4 µM. For the same compound, the GI50 [57] was 10.8 µM, the TGI [57] was 22.6 µM and the GI50 [58] was 5.01 µM. For the same compound, the TGI [58] was 19.4 µM.

Reference: PubChem BioAssay (NCI)
